Source: PMC10325900, “A conserved motif in the disordered linker of human MLH1 is vital for DNA mismatch repair and its function is diminished by a cancer family mutation” (Nucleic Acids Research, 2023)
No end group written: not given here.

Test system: DNA mismatch repair reaction of MMR-proficient HEK293 cell extract
Experiment: MMR competition test with nuclear extract of MMR-proficient HEK293 cells
Assay type: biochemical, human
Details: up to 75 μM ConMot-32 peptide
Procedure: Mismatch repair activity was assessed as described in detail before ([79],[81]) (Supplementary Figure S3). […] Mismatched DNA plasmid substrate (Supplementary Figure S3) prepared according to previously published procedures ([81–83]) was added, and reactions in a final volume of 25 μl were incubated at 37°C for 15 min. Repair efficiency was scored by purifying the mismatched DNA plasmid from the reaction and assessing the fraction of homoduplex sequence by restriction digestion of the mismatched site using EcoRV. The substrate was additionally linearized with AseI.
For complementation assays with peptide, the indicated peptide(s) were used at stock concentrations of 50 or 500 μM in HEPES–KOH 20 mM pH 7.6 and supplemented to the MMR reactions. […]
Figure 4. […] (C) The concentration-dependence of the MMR-activating effect of the ConMot-32 peptide observed in (B) was measured over a concentration range from 1–75 μM. […] Into this diagram, the average MMR activities (and standard deviations) measured in >3 of the experiment exemplarily shown in C were introduced as bars at ConMot-32 peptide concentrations of 1, 2.5, 7.5, 18 and 75 μM. […]
In parallel, the single- strand nick is ligated. […] 40- 80% absolute repair, determined as signal intensities of the repair bands divided by sum of […]

## SGSSDKVYAHQMVRTDSREQKLDAFLQPLSKP [ConMot-32]
Listed as ConMot peptide
  interference with regular DNA mismatch repair: did not detectably interfere
Listed as ConMot-peptide
  interference with regular DNA mismatch repair: not attenuated
